In patent US20050019420A1, “Fungicide composition comprising pyrimethanil and at least a phosphorous acid derivative and use thereof for fighting against plant diseases” (priority 2001, published 2005):

Test system: Venturia inaequalis
Test: Apple tree scab field trial, preventive spray programme
Type: in vivo
Conditions: for % of leaves attacked: apple tree Rome Beauty
From the text: Apple Tree—Venturia inaequalis
The following fungicides are compared: • Pyrimethanil at the dose of 20 g/hl and mixtures. • fosetyl-Al+pyrimethanil at the doses of 50+20 and 100+20 g/hl applied in a plant protection mixture volume of 1 200 l/ha.
The products are applied to an apple tree (Rome Beauty variety) which is sensitive to Venturia inaequalis.
The various products to be studied are sprayed every 7, 10 or 13 days (9, 7 and 6 applications in total respectively) in a program of treatment starting on 28 Mar. 2001.
Scores are awarded for the disease (% foliar surface area destroyed) on 14 May and 11 Jun. 2001. The results are expressed as % of leaves attacked.

Structure (SMILES)	persistence of the action of pyrimethanil (addition of fosetyl-Al to pyrimethanil, applications every 10 to 13 days compared with weekly applications)	% of leaves attacked (dose (20), sprayed every 7 days (9 applications), scored 11 June 2001) [%]	% of leaves attacked (dose (20), sprayed every 7 days (9 applications), scored 14 May 2001) [%]	% of leaves attacked (dose (200), sprayed every 10 days (7 applications), scored 11 June 2001) [%]	% of leaves attacked (dose (200), sprayed every 10 days (7 applications), scored 14 May 2001) [%]	% of leaves attacked (dose (200), sprayed every 13 days (6 applications), scored 11 June 2001) [%]	% of leaves attacked (dose (200), sprayed every 13 days (6 applications), scored 14 May 2001) [%]
CCO[PH](=O)O [fosetyl-AI, monoethyl ester-phosphonate-aluminum]	improve the persistence of the action of pyrimethanil	–	–	–	–	–	–
Cc1cc(C)nc(Nc2ccccc2)n1 [Pyrimethanil, pyrimethanil]	–	27.7	14.7	33	16.2	32	16.3
